In US8163790B2, “Metronidazole cocrystals and imipramine cocrystals” (New Form Pharmaceuticals, Inc., priority 2005, dated 2012):
Values belong to the compound of their own block, whether it stands above or below them.

Experiments:
[1] = water at 23° C., 900 mL, 100 rpm
[2] = intrinsic dissolution, 900 mL, 100 rpm, 0.50 cm^2; media 34 mM aqueous NaCl, water at 37° C., water at ambient temperature (medium of the value not stated); relative to imipramine HCl
[3] = Intrinsic dissolution of metronidazole:gallic acid cocrystal (Woods apparatus, UV 318 nm); type: physicochemical; conditions: water at 37° C., 900 mL, 100 rpm, 0.50 cm^2, relative to metronidazole
Experimental: Samples of metronidazole and the metronidazole cocrystal were compressed at 1000 psi for approximately one minute. […] A dissolution medium of water was used at 37° C. […] Metronidazole and the metronidazole:gallic acid cocrystal solutions were analyzed with a Cary 50 UV-VIS single-beam spectrophotometer without dilution at room temperature in a 1.000 cm quartz cuvette. […] Wavelength calibration was performed using holmium oxide.

imipramine HCl dissolved from the cocrystal ([1]; at 300 minutes): less than 0.0063 mg/mL | dissolution rate compared with imipramine HCl (in words) ([1]; intrinsic dissolution, rate too slow to quantify accurately): much slower rate
Structure (SMILES): CN(C)CCCN1c2ccccc2CCc2ccccc21.Cl.O=C(O)c1ccc2ccccc2c1O

imipramine dissolved from imipramine HCl ([1]; in two minutes): 0.013 mg/mL
Structure (SMILES): CN(C)CCCN1c2ccccc2CCc2ccccc21.Cl [imipramine HCl, Imipramine hydrochloride, reference compound]

dissolution rate of the cocrystal as % of the rate of imipramine HCl [2]: about 58%
Structure (SMILES): CN(C)CCCN1c2ccccc2CCc2ccccc21.CN(C)CCCN1c2ccccc2CCc2ccccc21.Cl.Cl.O=C(O)C=CC(=O)O [imipramine HCl:fumaric acid cocrystal]

dissolution rate of the cocrystal as % of the rate of metronidazole [3]: about 22%
Structure (SMILES): Cc1ncc([N+](=O)[O-])n1CCO.O=C(O)c1cc(O)c(O)c(O)c1 [metronidazole:gallic acid cocrystal]
